Legend:
[1] = system: biofilm 1; experiment: Area covered by biofilm 1 (staining, image analysis); type: cell-based
Experimental: The method was tested and implemented experimentally on five types of biofilm; biofilms 1, 2, 3 and 5 were obtained using an in vitro model that mimics the hemodialysis generator: • biofilm 1: enriched with nutrients for accelerated growth (3 days) moderate thickness (about 10^5 CFU/cm^2), very rich in slime; • biofilm 2: not enriched with nutrients having grown over 1 month, equivalent to those actually encountered in dialysis generators (about 10^3 CFU/cm^2) very rich in scale crystals; • biofilm 3: enriched with nutrients for accelerated growth (5 days), thick (about 10^9 CFU/cm^2) very rich in slime; • biofilm 4: specimen of tubing conveying water for hemodialysis, taken from a center, covered with a biofilm of about 10^3 CFU/cm^2 but having grown over more than one year; and • biofilm 5: enriched with nutrients for accelerated growth, having grown in a “preventive” model over three weeks. Production of the In Vitro Model
A 250 ml reactor vessel was filled with a nonsterile dialysate, prepared by diluting sterile apyrogenic hemodialysis concentrates (Clearflex® from Bieffe Medical) with nonsterile osmosed water containing Pseudomonas putida, Pseudomonas fluorescens and Flavimonas orizibitans, produced continuously in the laboratory.
The contaminating medium was circulated in a closed circuit in a loop of silicon tubing 1.5 meters in length and 5 mm inside diameter with a flow rate of 500 ml/min by a peristaltique pump. All the tubing and the reactor vessel were sterilized beforehand in an autoclave at 121° C. for 30 minutes. Thus, the dialysate naturally contaminated by the bacteria in the water was the only source of microorganisms.
The entire system was maintained at a temperature of 37° C. by a hotplate on which the reactor vessel was placed.
In the case of biofilms 1, 3 and 5, the bacterial growth and consequently the development of the biofilm were accelerated by adding an LB culture medium diluted 50-fold, i.e. an LB culture medium diluted to […] and topped up with a flow equal to 1/10th of that of the dialysate. The dialysate and culture medium top-up flow rates, regulated by a peristaltic pump, were 5 and 0.5 ml/minute, respectively.
The tubings covered with biofilms 1, 2 and 3 were cut into segments 5 cm in length. For screening on biofilms 1 and 2, each segment for undergoing one of the various treatments to be investigated was selected by drawing lots. Control specimens taken at random from the silicon loop were kept untreated.
The tubing segments to be treated were attached to the descending branch of a set-up consisting of two tubings—one ascending and the other descending, a peristaltic pump and a water bath (for treatments carried out a temperature above 20° C.). The product to be tested in “recirculation” mode was dissolved in a 100 ml flask and driven by the peristaltic pump at a rate of 500 ml/min in a closed circuit through the tubings for a duration corresponding to the contact times given in table II. The product to be tested in “static” mode was dissolved in a 100 ml flask and driven by the peristaltic pump until the tubings had been filled; the pump was then stopped and the product left in stasis for the desired contact time. After each treatment by a given product, the tubing specimens were rinsed for five minutes with osmosed water.
The control and treated biofilms were stained: • either with a 0.25% crystal violet solution; • or with a Baclight® fluorochrome solution (Syto 9 and propidium iodide). The viable bacteria show up green while the dead bacteria show up yellow or red.
The silicon tubing specimens covered with stained biofilms were attached to glass slides and observed under an optical microscope, the microscope being connected to a camera and to “Scion Images” image analysis software. […]

[2] = system: biofilm 2; experiment: Area covered by biofilm 2 (staining, image analysis); type: cell-based; conditions: Treat. No. 7, 3%, 37 °C, 5 min, Recirc
Experimental: The method was tested and implemented experimentally on five types of biofilm; biofilms 1, 2, 3 and 5 were obtained using an in vitro model that mimics the hemodialysis generator: • biofilm 1: enriched with nutrients for accelerated growth (3 days) moderate thickness (about 10^5 CFU/cm^2), very rich in slime; • biofilm 2: not enriched with nutrients having grown over 1 month, equivalent to those actually encountered in dialysis generators (about 10^3 CFU/cm^2) very rich in scale crystals; • biofilm 3: enriched with nutrients for accelerated growth (5 days), thick (about 10^9 CFU/cm^2) very rich in slime; • biofilm 4: specimen of tubing conveying water for hemodialysis, taken from a center, covered with a biofilm of about 10^3 CFU/cm^2 but having grown over more than one year; and • biofilm 5: enriched with nutrients for accelerated growth, having grown in a “preventive” model over three weeks. […] Thus, several (6 to 10) photographs of the same specimen were taken, the stained area was evaluated quantitatively by the image analysis software and a mean covered area value per specimen was calculated. This mean value was compared with the covered area of the untreated control specimens: a percentage reduction in covered area was then calculated.

O=C(O)CC(O)(CC(=O)O)C(=O)O [Citric acid]
Result (removal; % covered area reduction) ([1]; Treat. No. 26, 3%, RT, 40 min, Recirc): . (No removal 0) | Result (removal; % covered area reduction) [2]: **** (Excellent removal 75-99%)

[K+].[OH-] [KOH]
Result (removal; % covered area reduction) ([1]; Treat. No. 13, 0.02N, RT, 40 min, Stat): ** (Moderate removal 25-50%) | Result (removal; % covered area reduction) ([1]; Treat. No. 15, 0.02N, RT, 40 min, Recirc): ** (Moderate removal 25-50%) | Result (removal; % covered area reduction) ([1]; Treat. No. 21, 0.02N, RT, 1 h, Recirc): *** (Good removal 50-75%) | Result (removal; % covered area reduction) ([1]; Treat. No. 22, 0.02N, RT, 24 h, Recirc): **** (Excellent removal 75-99%) | Result (removal; % covered area reduction) ([1]; Treat. No. 27, 0.002N, RT, 40 min, Recirc): ** (Moderate removal 25-50%) | Result (removal; % covered area reduction) ([1]; Treat. No. 35, 0.001N, RT, 40 min, Recirc): ** (Moderate removal 25-50%)

[Na+].[OH-] [NaOH]
Result (removal; % covered area reduction) ([1]; Treat. No. 12, 0.01N, RT, 40 min, Stat): * (Poor removal 0-25%)

[O-][Cl+3]([O-])([O-])O [Perchlo ac, Perchloric acid]
Result (removal; % covered area reduction) ([1]; Treat. No. 11, 0.05%, RT, 40 min, Stat): . (No removal 0)

CCCCCCCCCCCCOS(=O)(=O)[O-].[Na+] [SDS, Sodium dodecyl sulfate]
Result (removal; % covered area reduction) ([1]; Treat. No. 1, 5%, RT, 40 min, Stat): ** (Moderate removal 25-50%) | Result (removal; % covered area reduction) ([1]; Treat. No. 8, 5%, RT, 40 min, Recirc): */.

O=C(O)C(Cl)(Cl)Cl [TCA, Trichloroacetic acid]
Result (removal; % covered area reduction) ([1]; Treat. No. 14, 0.25%, RT, 40 min, Stat): . (No removal 0)

Triton
Result (removal; % covered area reduction) ([1]; Treat. No. 2, 5%, RT, 40 min, Stat): * (Poor removal 0-25%) | Result (removal; % covered area reduction) ([1]; Treat. No. 16, 5%, RT, 40 min, Recirc): . (No removal 0)

Trypsin
Result (removal; % covered area reduction) ([1]; Treat. No. 6, EDTA IX, RT, 40 min, Stat): . (No removal 0) | Result (removal; % covered area reduction) ([1]; Treat. No. 7, 0.25%, 37 °C, 40 min, Stat): ** (Moderate removal 25-50%) | Result (removal; % covered area reduction) ([1]; Treat. No. 29, 0.25%, 37 °C, 40 min, Recirc): . (No removal 0) | Result (removal; % covered area reduction) ([1]; Treat. No. 37, 1%, 37 °C, 40 min, Recirc): * (Poor removal 0-25%)

B1: Thermolys: enzyme, Sigma (protein, UniProt P00800 233-548, looked up)
Thermolysin: ITGTSTVGVGRGVLGDQKNINTTYSTYYYLQDNTRGNGIFTYDAKYRTTLPGSLWADADNQFFASYDAPAVDAHYYAGVTYDYYKNVHNRLSYDGNNAAIRSSVHYSQGYNNAFWNGSQMVYGDGDGQTFIPLSGGIDVVAHELTHAVTDYTAGLIYQNESGAINEAISDIFGTLVEFYANKNPDWEIGEDVYTPGISGDSLRSMSDPAKYGDPDHYSKRYTGTQDNGGVHINSGIINKAAYLISQGGTHYGVSVVGIGRDKLGKIFYRALTQYLTPTSNFSQLRAAAVQSATDLYGSTSQEVASVKQAFDAVGVK
Result (removal; % covered area reduction) ([1]; Treat. No. 33, 2 mg/50 ml, 37 °C, 40 min, Recirc): ** (Moderate removal 25-50%)

Source: patent publication US20050079594A1, “Method of removing a biofilm” (Karine Marion, priority 2002, published 2005)
